Results taken from PubChem BioAssay (NCI).
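Each compound was tested at five concentrations against cells in 96-well plates for 48 hours. The concentration for full growth arrest is given as TGI.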

Key:
Experiment in all cases: NCI-60 cell line screen, 48 h
OVCAR-8 ovarian = tested on: OVCAR-8 ovarian
NCI-H460 lung = tested on: NCI-H460 lung
M14 melanoma = tested on: M14 melanoma
CAKI-1 renal = tested on: CAKI-1 renal
UACC-257 melanoma = tested on: UACC-257 melanoma
HOP-92 NSCLC = tested on: HOP-92 NSCLC
NCI-H226 lung = tested on: NCI-H226 lung
SK-OV-3 ovarian = tested on: SK-OV-3 ovarian
OVCAR-4 ovarian = tested on: OVCAR-4 ovarian
LOX IMVI melanoma = tested on: LOX IMVI melanoma
U251 CNS = tested on: U251 CNS
MDA-MB-231 breast = tested on: MDA-MB-231 breast
EKVX NSCLC = tested on: EKVX NSCLC
SR leukemia = tested on: SR leukemia
MALME-3M melanoma = tested on: MALME-3M melanoma
IGROV1 ovarian = tested on: IGROV1 ovarian
SF-295 CNS = tested on: SF-295 CNS
MDA-N = tested on: MDA-N
MCF7 breast = tested on: MCF7 breast
NCI/ADR-RES ovarian = tested on: NCI/ADR-RES ovarian
SNB-19 CNS = tested on: SNB-19 CNS
HCT-15 colon = tested on: HCT-15 colon
SNB-75 CNS = tested on: SNB-75 CNS
786-0 renal = tested on: 786-0 renal
SF-539 CNS = tested on: SF-539 CNS
CCRF-CEM leukemia = tested on: CCRF-CEM leukemia
BT-549 breast = tested on: BT-549 breast
SF-268 CNS = tested on: SF-268 CNS
RPMI-8226 leukemia = tested on: RPMI-8226 leukemia
OVCAR-3 ovarian = tested on: OVCAR-3 ovarian
MDA-MB-435 = tested on: MDA-MB-435
SK-MEL-28 melanoma = tested on: SK-MEL-28 melanoma
NCI-H522 lung = tested on: NCI-H522 lung
NCI-H23 lung = tested on: NCI-H23 lung
A498 renal = tested on: A498 renal
RXF 393 renal = tested on: RXF 393 renal
COLO 205 colon = tested on: COLO 205 colon
HCT-116 colon = tested on: HCT-116 colon
HS 578T breast = tested on: HS 578T breast
ACHN renal = tested on: ACHN renal
HOP-62 NSCLC = tested on: HOP-62 NSCLC
SW-620 colon = tested on: SW-620 colon
OVCAR-5 ovarian = tested on: OVCAR-5 ovarian
A549 NSCLC = tested on: A549 NSCLC
DU-145 prostate = tested on: DU-145 prostate
KM12 colon = tested on: KM12 colon
K-562 leukemia = tested on: K-562 leukemia
SK-MEL-5 melanoma = tested on: SK-MEL-5 melanoma
HT29 colon = tested on: HT29 colon
MOLT-4 leukemia = tested on: MOLT-4 leukemia
SK-MEL-2 melanoma = tested on: SK-MEL-2 melanoma
PC-3 prostate = tested on: PC-3 prostate
UACC-62 melanoma = tested on: UACC-62 melanoma
SN12C renal = tested on: SN12C renal
T-47D breast = tested on: T-47D breast
UO-31 renal = tested on: UO-31 renal
TK-10 renal = tested on: TK-10 renal
HCC-2998 colon = tested on: HCC-2998 colon
HL-60(TB) leukemia = tested on: HL-60(TB) leukemia

Question: What does the source list for `CCOc1ccc(C2Oc3c(cccc3OC)C=C2[N+](=O)[O-])cc1OCC` (centres undefined)?
Answer: TGI (OVCAR-8 ovarian): 4.75 µM; TGI (NCI-H460 lung): 26.8 µM; TGI (M14 melanoma): 7.01 µM; TGI (CAKI-1 renal): 17.3 µM; TGI (UACC-257 melanoma): 12.8 µM; TGI (HOP-92 NSCLC): 27 µM; TGI (NCI-H226 lung): 46.6 µM; TGI (SK-OV-3 ovarian): 64.9 µM; TGI (OVCAR-4 ovarian): 43.9 µM; TGI (LOX IMVI melanoma): 5.52 µM; TGI (U251 CNS): 12.9 µM; TGI (MDA-MB-231 breast): 10.1 µM; TGI (EKVX NSCLC): 40 µM; TGI (SR leukemia): 5.6 µM; TGI (MALME-3M melanoma): 5.74 µM; TGI (IGROV1 ovarian): 11.1 µM; TGI (SF-295 CNS): 32.4 µM; TGI (MDA-N): 5.79 µM; TGI (MCF7 breast): > 100 µM; TGI (NCI/ADR-RES ovarian): 17.9 µM; TGI (SNB-19 CNS): 45.2 µM; TGI (HCT-15 colon): 19 µM; TGI (SNB-75 CNS): > 56.5 µM; TGI (786-0 renal): 9.77 µM; TGI (SF-539 CNS): 5.24 µM; TGI (CCRF-CEM leukemia): 6.88 µM; TGI (BT-549 breast): 29.6 µM; TGI (SF-268 CNS): 47.2 µM; TGI (RPMI-8226 leukemia): 6.49 µM; TGI (OVCAR-3 ovarian): 19.6 µM; TGI (MDA-MB-435): 16.7 µM; TGI (SK-MEL-28 melanoma): 5.74 µM; TGI (NCI-H522 lung): 3.7 µM; TGI (NCI-H23 lung): 19.7 µM; TGI (A498 renal): 24 µM; TGI (RXF 393 renal): 11.5 µM; TGI (COLO 205 colon): 12.8 µM; TGI (HCT-116 colon): 3.31 µM; TGI (HS 578T breast): > 100 µM; TGI (ACHN renal): 14.6 µM; TGI (HOP-62 NSCLC): 19.2 µM; TGI (SW-620 colon): 4.22 µM; TGI (OVCAR-5 ovarian): 23.3 µM; TGI (A549 NSCLC): 49.4 µM; TGI (DU-145 prostate): 28.6 µM; TGI (KM12 colon): 20.1 µM; TGI (K-562 leukemia): 5.19 µM; TGI (SK-MEL-5 melanoma): 16.6 µM; TGI (HT29 colon): 8.11 µM; TGI (MOLT-4 leukemia): > 28.4 µM; TGI (SK-MEL-2 melanoma): 19.8 µM; TGI (PC-3 prostate): 14.9 µM; TGI (UACC-62 melanoma): 23.3 µM; TGI (SN12C renal): > 67.1 µM; TGI (T-47D breast): > 47.5 µM; TGI (UO-31 renal): 8.8 µM; TGI (TK-10 renal): 31.6 µM; TGI (HCC-2998 colon): 38.3 µM; TGI (HL-60(TB) leukemia): 7.07 µM
